Experiments:
[1] = tested on: rabbit serum obtained by immunizing a rabbit with the SARS-CoV strain Frankfurt 1; format: binding; design: Binding of a rabbit serum to linear peptides / Binding of a rabbit serum to looped peptides / Rabbit serum linear peptides / Rabbit serum looped peptides / Binding of a rabbit serum to linear peptides of protein N of SARS-CoV Urbani (Rabbit serum linear peptides) / Binding of a rabbit serum to looped/cyclic peptides of protein N of SARS-CoV Urbani (Rabbit serum looped peptides): unit not given here
[2] = tested on: antibodies in sera from SARS patients (sera 1a, 1b, 2, 6, 37, 62, London, SARS-yellow, SARS-green); format: binding, human; design: Binding of serum 6 to linear peptides of protein X1 of SARS-CoV Urbani / Binding of serum 37 to linear peptides of protein X1 of SARS-CoV Urbani / Binding of serum 6 to looped/cyclic peptide (PEPSCAN-ELISA) / Binding of serum 37 to looped/cyclic peptide (PEPSCAN-ELISA) / Binding of serum 37 to looped/cyclic peptides of protein X1 of SARS-CoV Urbani / Binding of serum 6 to linear peptides of protein X2 / Binding of serum 37 to linear peptides of protein X2 / Binding of serum 37 to looped/cyclic peptides of protein X2 of SARS-CoV Urbani / Binding of serum 6 to linear peptides of protein M of SARS-CoV Urbani / Binding of serum 37 to linear peptides of protein M of SARS-CoV Urbani / Binding of serum 6 to looped/cyclic peptides of protein M of SARS-CoV Urbani / Binding of serum 37 to looped/cyclic peptides of protein M of SARS-CoV Urbani / Binding of serum 6 to linear peptides of protein X3 of SARS-CoV Urbani / Binding of serum 37 to linear peptides of protein X3 of SARS-CoV Urbani / Binding of serum 37 to looped/cyclic peptides of protein X3 of SARS-CoV Urbani / Binding of serum 6 to linear peptides of protein X4 of SARS-CoV Urbani / Binding of serum 37 to linear peptides of protein X4 of SARS-CoV Urbani / Binding of serum 37 to looped/cyclic peptides of protein X4 of SARS-CoV Urbani / Binding of serum 6 to linear peptides of protein X5 of SARS-CoV Urbani / Binding of serum 37 to linear peptides of protein X5 of SARS-CoV Urbani / Binding of serum 37 to looped/cyclic peptides of protein X5 of SARS-CoV Urbani / Binding of serum 6 to linear peptides of protein N of SARS-CoV Urbani / Binding of serum 37 to linear peptides of protein N of SARS-CoV Urbani / Binding of serum 6 to linear peptide (PEPSCAN-ELISA) / Binding of serum 1a to looped/cyclic peptides of protein N of SARS-CoV Urbani / Binding of serum 1b to looped/cyclic peptides of protein N of SARS-CoV Urbani / Binding of serum 2 to looped/cyclic peptides of protein N of SARS-CoV Urbani / Binding of serum 6 to looped/cyclic peptides of protein N of SARS-CoV Urbani / Binding of serum 37 to looped/cyclic peptides of protein N of SARS-CoV Urbani / Binding of serum 62 to looped/cyclic peptides of protein N of SARS-CoV Urbani / Binding of serum London to looped/cyclic peptides of protein N of SARS-CoV Urbani / Binding of serum SARS-green to looped/cyclic peptides of protein N of SARS-CoV Urbani: unit not given here
[3] = tested on: control sera (pooled serum of ten healthy LUMC hospital workers; commercial negative donor pooled serum from the Dutch bloodbank); format: binding, human; design: Binding of Control serum LUMC to linear peptides / Binding of Control serum Blood-bank to linear peptides / Binding of Control serum LUMC to looped peptides / Binding of Control Serum Blood-Bank to Looped peptides / Binding of Control serum LUMC to linear peptides of the protein M of SARS-CoV Urbani / Binding of Control serum Blood-bank to linear peptides of the protein M of SARS-CoV Urbani / Binding of Control serum LUMC to looped peptides of the protein M of SARS-CoV Urbani / Binding of Control Serum Blood-Bank to Looped peptides of the protein M of SARS-CoV Urbani: unit not given here

For CRIIMRCWLCWKCKS, the “Binding of a rabbit serum to linear peptides” value [1] was 0.1, the “Binding of a rabbit serum to looped peptides” value [1] was 0.7 and the “Binding of serum 1a to looped/cyclic peptide (PEPSCAN-ELISA)” value [2] was 0.5. The “Binding of serum 1b to looped/cyclic peptide (PEPSCAN-ELISA)” value [2] was 0.4, the “Binding of serum 2 to looped/cyclic peptide (PEPSCAN-ELISA)” value [2] was 0.5 and the “Binding of serum 6 to looped/cyclic peptide (PEPSCAN-ELISA)” value [2] was 0.5. The “Binding of serum 37 to looped/cyclic peptide (PEPSCAN-ELISA)” value [2] was 0.6, the “Binding of serum 62 to looped/cyclic peptide (PEPSCAN-ELISA)” value [2] was 0.6 and the “Binding of serum London to looped/cyclic peptide (PEPSCAN-ELISA)” value [2] was 0.4. For the same sequence, the “Binding of serum SARS-green to looped/cyclic peptide (PEPSCAN-ELISA)” value [2] was 0.2, the “Binding of serum SARS-yellow to looped/cyclic peptide (PEPSCAN-ELISA)” value [2] was 0.4 and the “Recognition of the peptide by sera of SARS-CoV infected individuals, and form (linear, looped/cyclic) in which it is recognized” value [2] was “recognized in linear form”. The “Binding of Control Serum Blood-Bank to Looped peptides” value [3] was 0.7, the “Binding of Control serum Blood-bank to linear peptides” value [3] was 0.4 and the “Binding of Control serum LUMC to linear peptides” value [3] was 0.3. The “Binding of Control serum LUMC to looped peptides” value [3] was 0.7.
For CWKCKSKNPLLYDAN, the “Binding of a rabbit serum to linear peptides” value [1] was 0.1, the “Binding of a rabbit serum to looped peptides” value [1] was 0.5 and the “Binding of serum 1a to looped/cyclic peptide (PEPSCAN-ELISA)” value [2] was 0.7. For the same sequence, the “Binding of serum 1b to looped/cyclic peptide (PEPSCAN-ELISA)” value [2] was 0.6, the “Binding of serum 2 to looped/cyclic peptide (PEPSCAN-ELISA)” value [2] was 0.5 and the “Binding of serum 6 to looped/cyclic peptide (PEPSCAN-ELISA)” value [2] was 0.4. For the same sequence, the “Binding of serum 37 to looped/cyclic peptide (PEPSCAN-ELISA)” value [2] was 0.7, the “Binding of serum 62 to looped/cyclic peptide (PEPSCAN-ELISA)” value [2] was 0.6 and the “Binding of serum London to looped/cyclic peptide (PEPSCAN-ELISA)” value [2] was 0.3. The “Binding of serum SARS-green to looped/cyclic peptide (PEPSCAN-ELISA)” value [2] was 0.2, the “Binding of serum SARS-yellow to looped/cyclic peptide (PEPSCAN-ELISA)” value [2] was 0.6 and the “Recognition of the peptide by sera of SARS-CoV infected individuals, and form (linear, looped/cyclic) in which it is recognized” value [2] was “recognized in linear form”. The “Binding of Control Serum Blood-Bank to Looped peptides” value [3] was 0.7, the “Binding of Control serum Blood-bank to linear peptides” value [3] was 0.7 and the “Binding of Control serum LUMC to linear peptides” value [3] was 0.8. For the same sequence, the “Binding of Control serum LUMC to looped peptides” value [3] was 0.7.
For DFQVTIAEILIIIMR, the “Rabbit serum linear peptides” value [1] was 0.3, the “Rabbit serum looped peptides” value [1] was 0.3 and the “Binding of serum 1a to linear peptides of protein X3 of SARS-CoV Urbani” value [2] was 0.7. The “Binding of serum 1a to looped/cyclic peptides of protein X3 of SARS-CoV Urbani” value [2] was 0.7, the “Binding of serum 1b to linear peptides of protein X3 of SARS-CoV Urbani” value [2] was 0.5 and the “Binding of serum 1b to looped/cyclic peptides of protein X3 of SARS-CoV Urbani” value [2] was 0.4. For the same sequence, the “Binding of serum 2 to linear peptides of protein X3 of SARS-CoV Urbani” value [2] was 0.6, the “Binding of serum 2 to looped/cyclic peptides of protein X3 of SARS-CoV Urbani” value [2] was 0.7 and the “Binding of serum 6 to linear peptides of protein X3 of SARS-CoV Urbani” value [2] was 0.5. For the same sequence, the “Binding of serum 6 to looped/cyclic peptides of protein X3 of SARS-CoV Urbani” value [2] was 0.4, the “Binding of serum 37 to linear peptides of protein X3 of SARS-CoV Urbani” value [2] was 0.6 and the “Binding of serum 37 to looped/cyclic peptides of protein X3 of SARS-CoV Urbani” value [2] was 0.7. For the same sequence, the “Binding of serum 62 to linear peptides of protein X3 of SARS-CoV Urbani” value [2] was 0.6, the “Binding of serum 62 to looped/cyclic peptides of protein X3 of SARS-CoV Urbani” value [2] was 0.5 and the “Binding of serum London to linear peptides of protein X3 of SARS-CoV Urbani” value [2] was 0.6. The “Binding of serum London to looped/cyclic peptides of protein X3 of SARS-CoV Urbani” value [2] was 0.2, the “Binding of serum SARS-green to linear peptides of protein X3 of SARS-CoV Urbani” value [2] was 0.4 and the “Binding of serum SARS-green to looped/cyclic peptides of protein X3 of SARS-CoV Urbani” value [2] was 0.2. The “Binding of serum SARS-yellow to linear peptides of protein X3 of SARS-CoV Urbani” value [2] was 0.5, the “Binding of serum SARS-yellow to looped/cyclic peptides of protein X3 of SARS-CoV Urbani” value [2] was 0.7 and the “Binding of Control Serum Blood-Bank to Looped peptides of the protein X3 of SARS-CoV Urbani” value [3] was 0.8. For the same sequence, the “Binding of Control serum Blood-bank to linear peptides of the protein X3 of SARS-CoV Urbani” value [3] was 0.8, the “Binding of Control serum LUMC to linear peptides of the protein X3 of SARS-CoV Urbani” value [3] was 0.6 and the “Binding of Control serum LUMC to looped peptides of the protein X3 of SARS-CoV Urbani” value [3] was 0.7.

— patent US20070128217A1 (priority 2003, published 2007)
